Assay results: patent US8778919B2, “Cyclic anilino—pyridinotriazines” (Janssen Pharmaceutica NV, priority 2005, dated 2014)

Experiments:
Format in all cases: biochemical
GSK-3α = GSK-3α (Homo sapiens, UniProt P49840); assay: GSK-3 kinase assay (C1), GSK-3α; details: 1 μM ATP; for IC50: read-out: C1 Score α
Method in brief: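 Radiometric SPA at room temperature in 25 mM Tris pH 7.4 with 10 mM MgCl2, 1 mM DTT, 5.7 ng/μl GSK-3β or 0.25 ng/μl GSK-3α, 5 μM biotinylated CREB peptide and 1 μM ATP plus ^33P-ATP. Stopped after 1 h; IC50 from dose-response versus no-compound control, reported as pIC50 score bands.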

CDK1/cyclinB (h) = CDK1/cyclinB (h) (Homo sapiens, UniProt P06493); assay: Kinase profiling C3.2 CDK1/cyclinB human; details: test concentration of 10^−6 M
Method in brief: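 Radiometric filter-binding assay: human CDK1/cyclinB (5-10 mU) with 0.1 mg/ml histone H1 substrate and [γ-33P]ATP in 8 mM MOPS pH 7.0, 10 mM Mg acetate, 40 min at room temperature. Stopped with phosphoric acid; substrate-bound 33P counted on P30 filtermat by scintillation.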

CDK2/cyclinA (h) = CDK2/cyclinA (h) (Homo sapiens, UniProt P24941); assay: Kinase profiling C3.3 CDK2/cyclinA human; details: test concentration of 10^−6 M
Method in brief: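 Human CDK2/cyclinA (5-10 mU) phosphorylates 0.1 mg/ml histone H1 in 8 mM MOPS pH 7.0, EDTA, 10 mM Mg acetate with [γ-33P]ATP, 40 min at room temperature. After phosphoric acid stop, filter-bound 33P counted by scintillation.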

CDK2/cyclinE (h) = CDK2/cyclinE (h) (Homo sapiens, UniProt P24941); assay: Kinase profiling C3.4 CDK2/cyclinE human; details: test concentration of 10^−6 M
Method in brief: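 Radiometric filter-binding assay: 5-10 mU enzyme with 0.1 mg/ml histone H1 in 8 mM MOPS pH 7.0, 0.2 mM EDTA, 10 mM Mg acetate and [γ-33P]ATP. Incubated 40 min at room temperature, stopped with phosphoric acid. Substrate-bound 33P counted on P30 filtermat.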

CDK3/cyclinE (h) = CDK3/cyclinE (h) (Homo sapiens, UniProt Q00526); assay: Kinase profiling C3.5 CDK3/cyclinE human; details: test concentration of 10^−6 M
Method in brief: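 Human CDK3/cyclinE (5-10 mU) phosphorylated 0.1 mg/ml histone H1 in 8 mM MOPS pH 7.0, 0.2 mM EDTA and 10 mM MgAcetate with [γ-33P]ATP. Reaction ran 40 min at room temperature and was stopped with phosphoric acid. Substrate-bound radioactivity was captured on P30 filtermat and measured by scintillation counting.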

CDK5/p35 human = CDK5/p35 human (Homo sapiens, UniProt Q00535); assay: Kinase profiling C3.6 CDK5/p35 human; details: CDK5/p35, test concentration of 10^−6 M
Method in brief: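 Radiometric filter-binding assay: human CDK5/p35 (5-10 mU) with 0.1 mg/ml histone H1 substrate in 8 mM MOPS pH 7.0, 0.2 mM EDTA, 10 mM Mg acetate and [γ-33P]ATP. Incubated 40 min at room temperature, stopped with phosphoric acid. Substrate 33P incorporation counted on P30 filtermat by scintillation.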

Sequence of GSK-3α (P49840 whole entry, species assumed): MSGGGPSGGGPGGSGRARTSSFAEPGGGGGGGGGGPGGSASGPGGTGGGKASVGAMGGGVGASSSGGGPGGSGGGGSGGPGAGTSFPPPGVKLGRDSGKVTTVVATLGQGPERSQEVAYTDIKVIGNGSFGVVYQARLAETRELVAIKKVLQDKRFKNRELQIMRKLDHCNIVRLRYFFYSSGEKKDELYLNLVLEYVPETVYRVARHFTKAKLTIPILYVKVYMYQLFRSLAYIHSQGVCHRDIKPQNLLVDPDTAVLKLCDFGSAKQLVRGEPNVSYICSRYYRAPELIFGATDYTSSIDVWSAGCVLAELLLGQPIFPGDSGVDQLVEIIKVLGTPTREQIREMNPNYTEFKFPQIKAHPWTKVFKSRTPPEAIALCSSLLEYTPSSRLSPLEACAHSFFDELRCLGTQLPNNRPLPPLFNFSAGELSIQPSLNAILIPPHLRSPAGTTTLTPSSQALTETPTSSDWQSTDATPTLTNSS
Sequence of CDK5/p35 human (Q00535 whole entry): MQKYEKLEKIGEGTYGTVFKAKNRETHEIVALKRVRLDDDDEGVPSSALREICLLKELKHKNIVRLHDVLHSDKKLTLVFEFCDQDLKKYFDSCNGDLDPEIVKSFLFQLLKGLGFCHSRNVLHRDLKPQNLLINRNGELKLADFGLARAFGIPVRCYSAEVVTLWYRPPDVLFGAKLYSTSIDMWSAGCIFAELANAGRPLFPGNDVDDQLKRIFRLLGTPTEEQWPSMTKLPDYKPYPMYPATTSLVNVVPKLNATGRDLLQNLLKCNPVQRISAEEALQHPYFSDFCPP
Sequence of CDK5/p35 human (Q15078 whole entry partner): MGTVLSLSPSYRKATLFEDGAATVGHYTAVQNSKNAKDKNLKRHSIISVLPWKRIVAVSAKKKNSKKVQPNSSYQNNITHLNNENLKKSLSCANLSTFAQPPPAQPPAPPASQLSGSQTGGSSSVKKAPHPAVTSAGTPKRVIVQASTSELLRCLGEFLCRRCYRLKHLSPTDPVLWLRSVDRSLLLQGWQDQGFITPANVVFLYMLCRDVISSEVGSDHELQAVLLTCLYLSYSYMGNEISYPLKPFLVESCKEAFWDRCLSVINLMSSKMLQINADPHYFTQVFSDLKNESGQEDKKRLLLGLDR
Sequence of CDK1/cyclinB (h) (P06493 whole entry): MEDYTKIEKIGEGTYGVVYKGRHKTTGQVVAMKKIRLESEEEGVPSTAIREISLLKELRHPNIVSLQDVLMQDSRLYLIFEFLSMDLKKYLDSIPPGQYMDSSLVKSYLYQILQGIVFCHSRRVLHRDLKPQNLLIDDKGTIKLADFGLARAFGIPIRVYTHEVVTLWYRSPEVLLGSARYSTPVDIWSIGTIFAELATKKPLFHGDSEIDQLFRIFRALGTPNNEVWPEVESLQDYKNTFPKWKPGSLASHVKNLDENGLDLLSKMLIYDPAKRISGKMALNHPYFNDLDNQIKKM
Sequence of CDK1/cyclinB (h) (P14635 whole entry partner): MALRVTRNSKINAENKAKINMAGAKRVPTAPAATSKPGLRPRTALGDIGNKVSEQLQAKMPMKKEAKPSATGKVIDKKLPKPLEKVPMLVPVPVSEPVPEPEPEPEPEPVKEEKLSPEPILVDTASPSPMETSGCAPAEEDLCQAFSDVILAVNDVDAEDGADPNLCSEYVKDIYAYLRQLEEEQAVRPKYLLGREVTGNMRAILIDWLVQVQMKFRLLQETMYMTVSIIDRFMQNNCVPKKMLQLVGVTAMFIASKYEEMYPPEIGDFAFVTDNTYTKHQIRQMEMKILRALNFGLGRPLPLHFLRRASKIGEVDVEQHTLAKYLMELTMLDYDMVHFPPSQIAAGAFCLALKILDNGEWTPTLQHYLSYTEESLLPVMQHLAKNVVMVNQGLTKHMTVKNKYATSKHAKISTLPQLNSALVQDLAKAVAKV

## O=C1CN2CCN(CC2)Cc2cc(Cl)cc(c2)Nc2ncnc(n2)-c2ccnc(c2)CCCN1 [Compound 41]
GSK-3α
  IC50: < 10 nM
CDK1/cyclinB (h)
  C3.2 score: 4 (Score 4 = >80% inhibition)
CDK2/cyclinA (h)
  C3.3 score: 4 (Score 4 = >80% inhibition)
CDK2/cyclinE (h)
  C3.4 score: 4 (Score 4 = >80% inhibition)
CDK3/cyclinE (h)
  C3.5 score: 3 (Score 3 = 60-80% inhibition)
CDK5/p35 human
  C3.6 score: 3 (Score 3 = 60-80% inhibition)

## CCN1CC(=O)NCCCc2cccc(c2)-c2ncnc(n2)Nc2cccc(c2)C1 [Compound 54]
GSK-3α
  IC50: < 10 nM
CDK1/cyclinB (h)
  C3.2 score: 3 (Score 3 = 60-80% inhibition)
CDK2/cyclinA (h)
  C3.3 score: 4 (Score 4 = >80% inhibition)
CDK2/cyclinE (h)
  C3.4 score: 4 (Score 4 = >80% inhibition)
CDK3/cyclinE (h)
  C3.5 score: 2 (Score 2 = 30-60% inhibition)
CDK5/p35 human
  C3.6 score: 3 (Score 3 = 60-80% inhibition)

## CN1CCCc2cc(ccn2)-c2ncnc(n2)Nc2cccc(c2)CNC(=O)C1 [Compound 7]
GSK-3α
  IC50: < 10 nM
CDK1/cyclinB (h)
  C3.2 score: 4 (Score 4 = >80% inhibition)
CDK2/cyclinA (h)
  C3.3 score: 4 (Score 4 = >80% inhibition)
CDK2/cyclinE (h)
  C3.4 score: 4 (Score 4 = >80% inhibition)
CDK3/cyclinE (h)
  C3.5 score: 4 (Score 4 = >80% inhibition)
CDK5/p35 human
  C3.6 score: 4 (Score 4 = >80% inhibition)

## CN1CCC(=O)NCCCc2cc(ccn2)-c2ncnc(n2)Nc2cccc(c2)C1 [Compound 3]
GSK-3α
  IC50: 100 to 1000 nM
CDK1/cyclinB (h)
  C3.2 score: 4 (Score 4 = >80% inhibition)
CDK2/cyclinA (h)
  C3.3 score: 4 (Score 4 = >80% inhibition)
CDK2/cyclinE (h)
  C3.4 score: 4 (Score 4 = >80% inhibition)
CDK3/cyclinE (h)
  C3.5 score: 3 (Score 3 = 60-80% inhibition)
CDK5/p35 human
  C3.6 score: 3 (Score 3 = 60-80% inhibition)

## CN1CCN(CCN2CCC(=O)NCCCc3cc(ccn3)-c3ncnc(n3)Nc3cccc(c3)C2)CC1 [Compound 11]
GSK-3α
  IC50: 100 to 1000 nM
CDK1/cyclinB (h)
  C3.2 score: 1 (Score 1 = 10-30% inhibition)
CDK2/cyclinA (h)
  C3.3 score: 1 (Score 1 = 10-30% inhibition)
CDK2/cyclinE (h)
  C3.4 score: 1 (Score 1 = 10-30% inhibition)
CDK3/cyclinE (h)
  C3.5 score: 1 (Score 1 = 10-30% inhibition)
CDK5/p35 human
  C3.6 score: 1 (Score 1 = 10-30% inhibition)

## O=C1CCN2CCN(CC2)Cc2cccc(c2)Nc2ncnc(n2)-c2ccnc(c2)CCCN1 [Compound 35]
GSK-3α
  IC50: 10 to 100 nM
CDK1/cyclinB (h)
  C3.2 score: 4 (Score 4 = >80% inhibition)
CDK2/cyclinA (h)
  C3.3 score: 4 (Score 4 = >80% inhibition)
CDK2/cyclinE (h)
  C3.4 score: 4 (Score 4 = >80% inhibition)
CDK3/cyclinE (h)
  C3.5 score: 4 (Score 4 = >80% inhibition)
CDK5/p35 human
  C3.6 score: 4 (Score 4 = >80% inhibition)

## CCN1CCCc2cc(ccn2)-c2ncnc(n2)Nc2cccc(c2)CCNC(=O)C1 [Compound 30]
GSK-3α
  IC50: < 10 nM
CDK1/cyclinB (h)
  C3.2 score: 4 (Score 4 = >80% inhibition)
CDK2/cyclinA (h)
  C3.3 score: 4 (Score 4 = >80% inhibition)
CDK2/cyclinE (h)
  C3.4 score: 4 (Score 4 = >80% inhibition)
CDK3/cyclinE (h)
  C3.5 score: 4 (Score 4 = >80% inhibition)
CDK5/p35 human
  C3.6 score: 4 (Score 4 = >80% inhibition)

## O=C1NCCCc2cncc(c2)-c2ncnc(n2)Nc2cccc(c2)CN[C@H]1CO [Compound 81]
GSK-3α
  IC50: < 10 nM
CDK1/cyclinB (h)
  C3.2 score: 4 (Score 4 = >80% inhibition)
CDK2/cyclinA (h)
  C3.3 score: 3 (Score 3 = 60-80% inhibition)
CDK2/cyclinE (h)
  C3.4 score: 4 (Score 4 = >80% inhibition)
CDK3/cyclinE (h)
  C3.5 score: 3 (Score 3 = 60-80% inhibition)
CDK5/p35 human
  C3.6 score: 3 (Score 3 = 60-80% inhibition)

## CN1CC(=O)NC/C(Cl)=C/c2cc(ccn2)-c2ncnc(n2)Nc2cccc(c2)C1 [Compound 2]
GSK-3α
  IC50: < 10 nM
CDK1/cyclinB (h)
  C3.2 score: 4 (Score 4 = >80% inhibition)
CDK2/cyclinA (h)
  C3.3 score: 4 (Score 4 = >80% inhibition)
CDK2/cyclinE (h)
  C3.4 score: 4 (Score 4 = >80% inhibition)
CDK3/cyclinE (h)
  C3.5 score: 4 (Score 4 = >80% inhibition)
CDK5/p35 human
  C3.6 score: 4 (Score 4 = >80% inhibition)

## CN1CC(=O)NCCCc2cc(ccn2)-c2ncnc(n2)Nc2cccc(c2)C1 [Compound 8]
GSK-3α
  C1 Score α: 4 (Score 4=pIC50 value>8)
CDK1/cyclinB (h)
  C3.2 score: 4 (Score 4 = >80% inhibition)
CDK2/cyclinA (h)
  C3.3 score: 4 (Score 4 = >80% inhibition)
CDK2/cyclinE (h)
  C3.4 score: 4 (Score 4 = >80% inhibition)
CDK3/cyclinE (h)
  C3.5 score: 4 (Score 4 = >80% inhibition)
CDK5/p35 human
  C3.6 score: 3 (Score 3 = 60-80% inhibition)

## CN1CC(=O)NCCCc2cc(ccn2)-c2ncnc(n2)Nc2cc(Cl)cc(c2)C1 [Compound 33]
GSK-3α
  IC50: < 10 nM
CDK1/cyclinB (h)
  C3.2 score: 4 (Score 4 = >80% inhibition)
CDK2/cyclinA (h)
  C3.3 score: 4 (Score 4 = >80% inhibition)
CDK2/cyclinE (h)
  C3.4 score: 4 (Score 4 = >80% inhibition)
CDK3/cyclinE (h)
  C3.5 score: 4 (Score 4 = >80% inhibition)
CDK5/p35 human
  C3.6 score: 4 (Score 4 = >80% inhibition)

## O=C1CN2CCN(CC2)Cc2cccc(c2)Nc2ncnc(n2)-c2ccnc(c2)CCCN1 [Compound 9]
GSK-3α
  C1 Score α: 4 (Score 4=pIC50 value>8)
CDK1/cyclinB (h)
  C3.2 score: 4 (Score 4 = >80% inhibition)
CDK2/cyclinA (h)
  C3.3 score: 4 (Score 4 = >80% inhibition)
CDK2/cyclinE (h)
  C3.4 score: 4 (Score 4 = >80% inhibition)
CDK3/cyclinE (h)
  C3.5 score: 3 (Score 3 = 60-80% inhibition)
CDK5/p35 human
  C3.6 score: 2 (Score 2 = 30-60% inhibition)

## CCN1CC(=O)NCCCc2cc(ccn2)-c2ncnc(n2)Nc2cc(Cl)cc(c2)C1 [Compound 34]
GSK-3α
  IC50: < 10 nM
CDK1/cyclinB (h)
  C3.2 score: 4 (Score 4 = >80% inhibition)
CDK2/cyclinA (h)
  C3.3 score: 4 (Score 4 = >80% inhibition)
CDK2/cyclinE (h)
  C3.4 score: 4 (Score 4 = >80% inhibition)
CDK3/cyclinE (h)
  C3.5 score: 4 (Score 4 = >80% inhibition)
CDK5/p35 human
  C3.6 score: 4 (Score 4 = >80% inhibition)

## CN1CCCC(=O)NCCCc2cc(ccn2)-c2ncnc(n2)Nc2cccc(c2)C1 [Compound 13]
GSK-3α
  IC50: 100 to 1000 nM
CDK1/cyclinB (h)
  C3.2 score: 1 (Score 1 = 10-30% inhibition)
CDK2/cyclinA (h)
  C3.3 score: 2 (Score 2 = 30-60% inhibition)
CDK2/cyclinE (h)
  C3.4 score: 2 (Score 2 = 30-60% inhibition)
CDK3/cyclinE (h)
  C3.5 score: 2 (Score 2 = 30-60% inhibition)
CDK5/p35 human
  C3.6 score: 1 (Score 1 = 10-30% inhibition)

## O=C1NCCCc2cc(ccn2)-c2ncnc(n2)Nc2cccc(c2)CN2CCCC12 (stereo not drawn) [Compound 12]
GSK-3α
  IC50: 100 to 1000 nM
CDK1/cyclinB (h)
  C3.2 score: 3 (Score 3 = 60-80% inhibition)
CDK2/cyclinA (h)
  C3.3 score: 4 (Score 4 = >80% inhibition)
CDK2/cyclinE (h)
  C3.4 score: 4 (Score 4 = >80% inhibition)
CDK3/cyclinE (h)
  C3.5 score: 3 (Score 3 = 60-80% inhibition)
CDK5/p35 human
  C3.6 score: 2 (Score 2 = 30-60% inhibition)

## O=C1NCCCc2cc(ccc2F)-c2ncnc(n2)Nc2cc(Cl)cc(c2)CN[C@H]1CO [Compound 71]
GSK-3α
  IC50: < 10 nM
CDK1/cyclinB (h)
  C3.2 score: 4 (Score 4 = >80% inhibition)
CDK2/cyclinA (h)
  C3.3 score: 2 (Score 2 = 30-60% inhibition)
CDK2/cyclinE (h)
  C3.4 score: 4 (Score 4 = >80% inhibition)
CDK3/cyclinE (h)
  C3.5 score: 4 (Score 4 = >80% inhibition)
CDK5/p35 human
  C3.6 score: 4 (Score 4 = >80% inhibition)

## O=C1CN2CCN(CC2)Cc2cccc(c2)Nc2ncnc(n2)-c2ccc(F)c(c2)CCCN1 [Compound 66]
GSK-3α
  IC50: < 10 nM
CDK1/cyclinB (h)
  C3.2 score: 4 (Score 4 = >80% inhibition)
CDK2/cyclinA (h)
  C3.3 score: 3 (Score 3 = 60-80% inhibition)
CDK2/cyclinE (h)
  C3.4 score: 4 (Score 4 = >80% inhibition)
CDK3/cyclinE (h)
  C3.5 score: 3 (Score 3 = 60-80% inhibition)
CDK5/p35 human
  C3.6 score: 3 (Score 3 = 60-80% inhibition)

## O=C1NCCCc2cccc(c2)-c2ncnc(n2)Nc2cccc(c2)CN[C@H]1CO [Compound 46]
GSK-3α
  IC50: < 10 nM
CDK1/cyclinB (h)
  C3.2 score: 4 (Score 4 = >80% inhibition)
CDK2/cyclinA (h)
  C3.3 score: 4 (Score 4 = >80% inhibition)
CDK2/cyclinE (h)
  C3.4 score: 4 (Score 4 = >80% inhibition)
CDK3/cyclinE (h)
  C3.5 score: 4 (Score 4 = >80% inhibition)
CDK5/p35 human
  C3.6 score: 4 (Score 4 = >80% inhibition)
